12 molecules from ChEMBL document CHEMBL1201862, “PubChem BioAssay data set” (2004) can be followed below.

Test systems include MCF7; OVCAR-4; MDA-MB-435; TK-10; NCI-H522; ACHN; UACC-257; PC-3; SK-MEL-28; K562; 786-0; HOP-62; SF-295; SK-MEL-2; BT-549; Malme-3M; RPMI-8226; SNB-75; A549; HOP-92.
What all share (test): NCI anticancer screen, dose series, 48 h

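A five-concentration, 48-hour dose response in 96-well plates underlies each endpoint, interpolated linearly between surrounding concentrations. GI50: concentration for 50% inhibition of growth.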 Calls of active or inactive are those of the source. No stated cut-off is given here; in the data, active = GI50 up to about 1.1 µM and inactive = higher. Bounds are passed on as bounds.

As for `Cc1ccc2c(c1)C(=S)N1CSCC1c1nncn1-2` (configuration not stated), the GI50 in the experiment on MCF7, in the experiment on OVCAR-4, in the experiment with MDA-MB-435, in the experiment with TK-10, in the experiment with NCI-H522 and in the experiment on ACHN was > 100 µM (inactive) in each case. Also, the GI50 in the experiment with UACC-257, with PC-3, in the experiment with SK-MEL-28, in the experiment on K562, in the experiment on 786-0 and in the experiment on HOP-62 was > 100 µM (inactive) each time. Moreover, the GI50 with SF-295, with SK-MEL-2, with BT-549, in the experiment with Malme-3M, with RPMI-8226 and in the experiment on SNB-75 was > 100 µM (inactive) in each case. Besides, the GI50 in the experiment with A549 was > 100 µM (inactive).

In the case of `CC1CCCCN1CC(=O)c1ccc2c(c1)Sc1ccccc1O2` (configuration not stated), the GI50 is 16 µM (inactive) in the experiment with MCF7; 13.2 µM (inactive) in the experiment on OVCAR-4; 13.8 µM (inactive) in the experiment on MDA-MB-435; 18.7 µM (inactive) in the experiment on TK-10; 15.3 µM (inactive) in the experiment on ACHN; 18.4 µM (inactive) in the experiment with UACC-257. The GI50 is 11.8 µM (inactive) with PC-3; 16.6 µM (inactive) in the experiment with SK-MEL-28; 30.3 µM (inactive) with K562; 13.2 µM (inactive) in the experiment on HOP-92; 14.1 µM (inactive) in the experiment with 786-0; 15.5 µM (inactive) in the experiment with HOP-62. Also, the GI50 with SF-295 was 16.5 µM (inactive); in the experiment with SK-MEL-2 it was 17.9 µM (inactive); in the experiment on Malme-3M it was 13.5 µM (inactive); with RPMI-8226 it was > 100 µM (inactive); with SNB-75 it was 11 µM (inactive); with A549, 14.6 µM (inactive).

With `COc1cc(OC)c2c3c(OC)cc(OC)c4c(=O)c(O)c(C[C@@H](C)O)c(c5c(C[C@@H](C)O)c(O)c(=O)c1c25)c43`, the GI50 is 21.2 µM (inactive) in the experiment with MCF7; 30.5 µM (inactive) in the experiment on OVCAR-4; 16.6 µM (inactive) in the experiment on MDA-MB-435; 53 µM (inactive) in the experiment with TK-10; 33.4 µM (inactive) in the experiment on ACHN; 34.3 µM (inactive) in the experiment with UACC-257. Moreover, the GI50 in the experiment on SK-MEL-28 was 20.1 µM (inactive); in the experiment on HOP-92 it was 14.5 µM (inactive); in the experiment on 786-0 it was 19.1 µM (inactive); in the experiment with HOP-62, 22.4 µM (inactive); in the experiment with SF-295, 40.2 µM (inactive); with SK-MEL-2 it was 19 µM (inactive). The GI50 is 18.7 µM (inactive) in the experiment on BT-549, 14.2 µM (inactive) in the experiment on SNB-75 and 36.7 µM (inactive) with A549.

Regarding `O=C(NCc1ccccc1)c1nn[nH]c1O`, the GI50 in the experiment on MCF7, in the experiment with OVCAR-4, in the experiment on MDA-MB-435, in the experiment with TK-10, in the experiment with NCI-H522 and with ACHN was > 100 µM (inactive) each time. Also, the GI50 with UACC-257, with PC-3, in the experiment on SK-MEL-28, with K562, in the experiment on 786-0 and in the experiment with HOP-62 was > 100 µM (inactive) throughout. Further, the GI50 in the experiment on SF-295, in the experiment on SK-MEL-2, with BT-549, with Malme-3M, in the experiment with RPMI-8226 and in the experiment with SNB-75 was > 100 µM (inactive) throughout. Moreover, the GI50 in the experiment on A549 is > 100 µM (inactive).

As to `CC(=O)/C(=C/N1CC(=O)NC1=S)C(=O)Nc1ccccc1C`, the GI50 with OVCAR-4, in the experiment with MDA-MB-435, with TK-10, in the experiment on ACHN, in the experiment with UACC-257 and in the experiment on SK-MEL-28 was > 100 µM (inactive) each time. Moreover, the GI50 in the experiment with HOP-92, in the experiment on 786-0, in the experiment on HOP-62, in the experiment with SF-295, with SK-MEL-2 and in the experiment on BT-549 was > 100 µM (inactive) each time. Moreover, the GI50 in the experiment with SNB-75 and in the experiment with A549 was > 100 µM (inactive) each time.

Regarding `Cc1c(O)c(C)c2c(C)cn(C(=O)C(C)(C)C)c2c1C`, the GI50 in the experiment with MCF7 is 3.27 µM (inactive); in the experiment on OVCAR-4, 12.6 µM (inactive); in the experiment on MDA-MB-435, 16.5 µM (inactive); in the experiment with TK-10 it was 20.5 µM (inactive); in the experiment with NCI-H522 it was 23.7 µM (inactive); with ACHN, 14.2 µM (inactive). Moreover, the GI50 in the experiment on PC-3 was 21.2 µM (inactive); in the experiment on SK-MEL-28, 15.3 µM (inactive); with K562 it was 24 µM (inactive); in the experiment with HOP-92, 0.0206 µM (active); with 786-0, 15.2 µM (inactive); in the experiment with HOP-62, 17.5 µM (inactive). Moreover, the GI50 was 17.8 µM (inactive) in the experiment on SF-295; 28.2 µM (inactive) in the experiment on SK-MEL-2; 29.6 µM (inactive) with RPMI-8226; 0.0201 µM (active) in the experiment on SNB-75; 22.9 µM (inactive) with A549.

On to `COC(=O)C1(Cc2ccccc2)Cc2ccccc2C1=O` (configuration not stated), for which the GI50 with MCF7 is 42.1 µM (inactive); with OVCAR-4, 25.4 µM (inactive); in the experiment with MDA-MB-435 it was 22.6 µM (inactive); in the experiment on TK-10, 57 µM (inactive); with ACHN, 36.6 µM (inactive); with UACC-257, 45.8 µM (inactive). For the same molecule, the GI50 is 44.9 µM (inactive) with PC-3; 65.9 µM (inactive) in the experiment on SK-MEL-28; 35 µM (inactive) with K562; 59.2 µM (inactive) with HOP-92; 60.5 µM (inactive) with 786-0; 72.1 µM (inactive) in the experiment with HOP-62. Moreover, the GI50 was 66.8 µM (inactive) in the experiment on SF-295; 19.1 µM (inactive) in the experiment on SK-MEL-2; 16.3 µM (inactive) in the experiment on Malme-3M; 35 µM (inactive) in the experiment on RPMI-8226; 42.7 µM (inactive) in the experiment on SNB-75; 32.9 µM (inactive) in the experiment on A549.

As to `CC(C(=O)O)C(C)(O)C(=O)O` (configuration not stated), the GI50 in the experiment on MCF7, in the experiment on OVCAR-4, in the experiment with MDA-MB-435, in the experiment on TK-10, in the experiment on NCI-H522 and in the experiment with UACC-257 was > 100 µM (inactive) throughout. Further, the GI50 in the experiment with PC-3, in the experiment on SK-MEL-28, in the experiment on K562, in the experiment with 786-0, in the experiment with SK-MEL-2 and in the experiment on BT-549 was > 100 µM (inactive) throughout. Besides, the GI50 in the experiment on Malme-3M, in the experiment on RPMI-8226, in the experiment with SNB-75 and in the experiment on A549 was > 100 µM (inactive) in each case.

Turning to `COC(=O)/C=C/CC(=O)NS(C)(=O)=O`, the GI50 in the experiment on MCF7, in the experiment with OVCAR-4, in the experiment with MDA-MB-435, in the experiment on TK-10, in the experiment on NCI-H522 and with ACHN was > 10 µM (inactive) throughout. The GI50 with UACC-257, in the experiment on PC-3, in the experiment on SK-MEL-28, with 786-0, in the experiment on HOP-62 and in the experiment with SF-295 was > 10 µM (inactive) each time. The GI50 in the experiment with SK-MEL-2, in the experiment on BT-549, with Malme-3M, with RPMI-8226 and in the experiment with A549 was > 10 µM (inactive) each time.

In the case of `CC(=O)OC12c3ccccc3C(c3ccccc31)C1C(=O)N(N=C(C)C)C(=O)C12` (configuration not stated), the GI50 with MCF7, in the experiment with OVCAR-4, with TK-10, with UACC-257, in the experiment with PC-3 and in the experiment with SK-MEL-28 was > 100 µM (inactive) throughout. Further, the GI50 with K562 is > 100 µM (inactive); with 786-0, > 100 µM (inactive); in the experiment with HOP-62, > 100 µM (inactive); in the experiment on SF-295, > 100 µM (inactive); with BT-549, > 100 µM (inactive); in the experiment on Malme-3M, 63.2 µM (inactive). For the same molecule, the GI50 in the experiment on RPMI-8226 was > 100 µM (inactive); in the experiment on SNB-75, 51.9 µM (inactive); in the experiment on A549 it was > 100 µM (inactive).

As to `COc1cccc(-c2nc(O)c3ccccc3n2)c1OC`, the GI50 with MCF7, with OVCAR-4, with MDA-MB-435, in the experiment on ACHN, with UACC-257 and with PC-3 was > 100 µM (inactive) in each case. The GI50 with 786-0, with HOP-62, in the experiment with SF-295, with SK-MEL-2, with BT-549 and in the experiment on Malme-3M was > 100 µM (inactive) in each case. The GI50 in the experiment on RPMI-8226 is 2.99 µM (inactive); with SNB-75, 46.1 µM (inactive); in the experiment with A549, > 100 µM (inactive).

For the molecule `Cc1cc(OC(=O)NCn2cc(-c3ccccc3)nn2)ccc1Cl`, the GI50 is > 100 µM (inactive) in the experiment on MCF7; 78.7 µM (inactive) in the experiment with OVCAR-4; > 100 µM (inactive) in the experiment on TK-10; 54.2 µM (inactive) with NCI-H522; > 100 µM (inactive) in the experiment on ACHN; > 100 µM (inactive) with UACC-257. Moreover, the GI50 is > 100 µM (inactive) in the experiment with PC-3; > 100 µM (inactive) with SK-MEL-28; 76.4 µM (inactive) with K562; 67.1 µM (inactive) with HOP-92; > 100 µM (inactive) in the experiment on 786-0; 69.3 µM (inactive) in the experiment on HOP-62. Also, the GI50 is > 100 µM (inactive) with SF-295; 48.3 µM (inactive) with SK-MEL-2; 68.9 µM (inactive) in the experiment on BT-549; 88.1 µM (inactive) in the experiment on Malme-3M; 78.2 µM (inactive) with RPMI-8226; 29.8 µM (inactive) with SNB-75. In addition, in the experiment with A549, the GI50 is 95.5 µM (inactive).
